This note sets out measurements from ChEMBL document CHEMBL1150183, “Spermine alkaloids from Schweinfurthia papilionacea” (J Nat Prod, 1990).

Holding throughout (type): toxicity, organism-based
Data set [1] deals with Salmonella typhimurium. In words: Mutagenic activity in Salmonella Typhimurium TA97a assessed as number of spontaneous revertants at 500 ug/plate by Ames test in absence of rat liver microsomal S9 fraction. The conditions noted are these: salmonella enterica subsp. enterica serovar typhimurium. (In general: In the Ames test, an excess of revertant colonies over the control signals mutagenicity.)

Data set [2] concerns Salmonella typhimurium. Briefly: Mutagenic activity in Salmonella Typhimurium TA98 assessed as number of spontaneous revertants at 500 ug/plate by Ames test in absence of rat liver microsomal S9 fraction. To be noted: salmonella enterica subsp. enterica serovar typhimurium.
Data set [3] relates to Salmonella typhimurium. Briefly: Mutagenic activity in Salmonella Typhimurium TA98 assessed as number of spontaneous revertants at 500 ug/plate by Ames test in presence of rat liver microsomal S9 fraction. The conditions noted are these: salmonella enterica subsp. enterica serovar typhimurium, microsomes.
Data set [4] relates to Salmonella typhimurium. Briefly: Mutagenic activity in Salmonella Typhimurium TA100 assessed as number of spontaneous revertants at 500 ug/plate by Ames test in absence of rat liver microsomal S9 fraction. The conditions noted are these: salmonella enterica subsp. enterica serovar typhimurium.
The subject of data set [5] is Salmonella typhimurium. In words: Mutagenic activity in Salmonella Typhimurium TA100 assessed as number of spontaneous revertants at 500 ug/plate by Ames test in presence of rat liver microsomal S9 fraction. To be noted: salmonella enterica subsp. enterica serovar typhimurium, microsomes.
Data set [6] has as its system Salmonella typhimurium. In words: Mutagenic activity in Salmonella Typhimurium TA98 assessed as increase in spontaneous revertants by Ames test relative to control spontaneous reversion. To be noted: salmonella enterica subsp. enterica serovar typhimurium.
In data set [7] the test system is Salmonella typhimurium. In words: Mutagenic activity in Salmonella Typhimurium TA100 assessed as increase in spontaneous revertants by Ames test relative to control spontaneous reversion. The conditions noted are these: salmonella enterica subsp. enterica serovar typhimurium.

`O=C1C[C@H]2NCCCNCCCCN(CCCN1)C(=O)[C@@H]1c3cc2ccc3O[C@H]1c1ccc(O)cc1`: the Activity in data set [1] was found to be 0; in data set [2] it was 81; in data set [3], 778; in data set [4], 143; in data set [5], 461. Also, the “fold change (FC)” value in data set [6] was 22; in data set [7], 4.
